Structures are written as SMILES. Like-named read-outs stand apart in the source and are kept apart here.

12 compounds from patent US12539292B2, “BRM targeting compounds and associated methods of use” (Arvinas Operations, Inc., priority 2018, dated 2026) can be followed below.

This assay concerns the target T1, BRM (Homo sapiens, UniProt P51531).
T1 construct: In-Cell Western Screen of BRM Degradation in SW1573 Cells; endogenous in cells; host or cells: SW1573
Description: In-cell Western screen of BRM degradation in SW1573 cells (Dmax and DC50). The assay is classed as cell-based. Summed up:
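SW1573, overnight cpd exposure (18-20 h), 0.1% DMSO final. PFA fix, 0.5% Triton permeabilization, block; IR secondaries at 800/680 nm. Odyssey read → Dmax, DC50.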

The mark [1] stands for this setting: BRM degradation, SW1573 cells, read-out: DC50.
[2] abbreviates: BRM degradation, SW1573 cells, when tested at the top concentration of between 0.3 and 10 μM, read-out: Dmax (%) (% degraded).
[3] abbreviates: BRM degradation, SW1573 cells, tested at the top concentration of between 0.3 and 10 μM, read-out: Dmax (%) (% degraded).
Setting [4] is: BRM degradation, SW1573 cells, Table 2D, read-out: *DC50.

T1 sequence (P51531 whole entry): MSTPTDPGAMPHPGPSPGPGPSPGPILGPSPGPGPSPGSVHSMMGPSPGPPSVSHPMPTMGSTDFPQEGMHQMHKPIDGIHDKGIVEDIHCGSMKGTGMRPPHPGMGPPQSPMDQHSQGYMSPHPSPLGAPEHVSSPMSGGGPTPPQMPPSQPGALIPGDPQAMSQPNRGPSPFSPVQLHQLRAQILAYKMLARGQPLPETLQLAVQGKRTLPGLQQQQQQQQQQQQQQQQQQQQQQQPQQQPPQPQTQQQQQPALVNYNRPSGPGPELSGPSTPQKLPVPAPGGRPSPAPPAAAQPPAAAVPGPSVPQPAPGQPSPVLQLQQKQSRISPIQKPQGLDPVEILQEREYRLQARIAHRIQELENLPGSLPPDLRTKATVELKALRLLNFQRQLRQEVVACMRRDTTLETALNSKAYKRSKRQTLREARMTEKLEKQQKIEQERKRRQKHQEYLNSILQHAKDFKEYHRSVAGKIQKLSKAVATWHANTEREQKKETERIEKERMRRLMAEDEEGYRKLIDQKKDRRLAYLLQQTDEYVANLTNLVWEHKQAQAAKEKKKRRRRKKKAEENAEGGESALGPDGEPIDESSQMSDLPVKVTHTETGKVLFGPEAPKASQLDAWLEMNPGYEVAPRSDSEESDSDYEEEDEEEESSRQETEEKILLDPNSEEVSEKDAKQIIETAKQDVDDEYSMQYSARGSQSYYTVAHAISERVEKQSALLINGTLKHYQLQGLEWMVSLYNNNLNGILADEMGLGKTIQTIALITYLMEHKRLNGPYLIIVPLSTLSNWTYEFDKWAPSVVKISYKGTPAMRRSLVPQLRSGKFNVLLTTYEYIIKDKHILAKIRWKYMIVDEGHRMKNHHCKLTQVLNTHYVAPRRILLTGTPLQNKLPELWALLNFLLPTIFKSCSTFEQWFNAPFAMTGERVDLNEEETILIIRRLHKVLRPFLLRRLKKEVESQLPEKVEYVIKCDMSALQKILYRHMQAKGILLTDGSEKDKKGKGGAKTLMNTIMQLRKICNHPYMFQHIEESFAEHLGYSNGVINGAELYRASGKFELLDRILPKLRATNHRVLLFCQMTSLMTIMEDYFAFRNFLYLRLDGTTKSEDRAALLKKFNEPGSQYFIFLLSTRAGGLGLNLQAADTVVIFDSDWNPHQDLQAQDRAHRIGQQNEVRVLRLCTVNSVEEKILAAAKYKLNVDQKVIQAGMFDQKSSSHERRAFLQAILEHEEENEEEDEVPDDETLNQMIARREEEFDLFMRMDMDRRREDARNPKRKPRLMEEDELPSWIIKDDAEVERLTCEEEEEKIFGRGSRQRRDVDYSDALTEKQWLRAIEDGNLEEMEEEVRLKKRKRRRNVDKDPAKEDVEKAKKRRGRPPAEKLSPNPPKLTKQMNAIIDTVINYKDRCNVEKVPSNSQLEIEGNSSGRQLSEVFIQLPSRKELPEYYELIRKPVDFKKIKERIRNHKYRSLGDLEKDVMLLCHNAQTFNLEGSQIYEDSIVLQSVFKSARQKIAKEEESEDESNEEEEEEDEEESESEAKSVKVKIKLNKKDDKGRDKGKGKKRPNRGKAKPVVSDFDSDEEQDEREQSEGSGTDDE

As usually defined, the DC50 is the concentration giving 50% degradation. By Dmax is commonly meant the greatest extent of degradation seen. In the case of `Cc1ncsc1-c1ccc([C@H](C)NC(=O)[C@@H]2C[C@@H](O)CN2C(=O)[C@@H](c2cc(OCCN3CCN(CCOCCn4cc(-c5cc(-c6ccccc6O)nnc5N)cn4)CC3)no2)C(C)C)cc1` [compound 62, (2S,4R)-1-((R)-2-(3-(2-(4-(2-(2-(4-(3-amino-6-(2-hydroxyphenyl)pyridazin-4-yl)-1H-pyrazol-1-yl)ethoxy)ethyl)piperazin-1-yl)ethoxy)isoxazol-5-yl)-3-methylbutanoyl)-4-hydroxy-N-((S)-1-(4-(4-methylthiazol-5-yl)phenyl)ethyl)pyrrolidine-2-carboxamide], the 50% degradation concentration (DC50) under setting [1] lay in the range of 2.5 to 10 nM. Under setting [2], the Dmax was greater than 75%.
`Cc1ncsc1-c1ccc(CNC(=O)[C@@H]2C[C@@H](O)CN2C(=O)[C@@H](c2cc(OCCN3CCN(CCOc4cc(N5C6CCC5CN(c5cc(-c7ccccc7O)nnc5N)C6)ccn4)C[C@@H]3C)no2)C(C)C)cc1` [compound 210, (2S,4R)-1-((2R)-2-(3-(2-((2S)-4-(2-((4-(3-(3-amino-6-(2-hydroxyphenyl)pyridazin-4-yl)-3,8-diazabicyclo[3.2.1]octan-8-yl)pyridin-2-yl)oxy)ethyl)-2-methylpiperazin-1-yl)ethoxy)isoxazol-5-yl)-3-methylbutanoyl)-4-hydroxy-N-(4-(4-methylthiazol-5-yl)benzyl)pyrrolidine-2-carboxamide]: the half-maximal degradation concentration (DC50) under setting [1] is less than 2.5 nM. Further, under setting [3], the Dmax was greater than 75%.
As to `Cc1ncsc1-c1ccc([C@H](C)NC(=O)[C@@H]2C[C@@H](O)CN2C(=O)[C@@H](c2cc(OCCC3CCN(C(=O)[C@H]4C[C@H](CN5CCC([C@@H](C)n6cc(-c7cc(-c8ccccc8O)nnc7N)cn6)CC5)C4)CC3)no2)C(C)C)cc1` [compound 456, (2S,4R)-1-((R)-2-(3-(2-(1-((1R,3R)-3-((4-((R)-1-(4-(3-amino-6-(2-hydroxyphenyl)pyridazin-4-yl)-1H-pyrazol-1-yl)ethyl)piperidin-1-yl)methyl)cyclobutane-1-carbonyl)piperidin-4-yl)ethoxy)isoxazol-5-yl)-3-methylbutanoyl)-4-hydroxy-N-((S)-1-(4-(4-methylthiazol-5-yl)phenyl)ethyl)pyrrolidine-2-carboxamide], the 50% degradation concentration (DC50) (target protein degradation, read-out: BRM DC50) is greater than 30 nM.
Take `Cc1ncsc1-c1ccc([C@H](C)NC(=O)[C@@H]2C[C@@H](O)CN2C(=O)[C@@H](NC(=O)COCCOCCOCCCCN2CCOC3(CCN(c4cc(-c5ccccc5O)nnc4N)CC3)C2)C(C)(C)C)cc1` [compound 51, (2S,4R)-1-[(2S)-2-(2-[2-[2-(4-[9-[3-amino-6-(2-hydroxyphenyl)pyridazin-4-yl]-1-oxa-4,9-diazaspiro[5.5]undecan-4-yl]butoxy)ethoxy]ethoxy]acetamido)-3,3-dimethylbutanoyl]-4-hydroxy-N-[(1S)-1-[4-(4-methyl-1,3-thiazol-5-yl)phenyl]ethyl]pyrrolidine-2-carboxamide]: the half-maximal degradation concentration (DC50) under setting [1] was 10 to 30 nM. Also, the Dmax under setting [2] was greater than 75%.
For `Cc1cc([C@H](C(=O)N2C[C@H](O)C[C@H]2C(=O)N[C@@H](C)c2ccc(-c3scnc3C)cc2)[C@@H](C)COCCCCOc2cc(N3C4CCC3CN(c3cc(-c5ccccc5O)nnc3N)C4)ccn2)on1` [compound 432, (2S,4R)-1-((2R,3R)-4-(4-((4-(3-(3-amino-6-(2-hydroxyphenyl)pyridazin-4-yl)-3,8-diazabicyclo[3.2.1]octan-8-yl)pyridin-2-yl)oxy)butoxy)-3-methyl-2-(3-methylisoxazol-5-yl)butanoyl)-4-hydroxy-N-((S)-1-(4-(4-methylthiazol-5-yl)phenyl)ethyl)pyrrolidine-2-carboxamide], where the note is “SW1573, % degraded, when tested at the top concentration of between 0.3 and 10 μM, read-out: BRM Dmax (%)”, the maximal degradation (Dmax) was greater than 75%. In addition, the DC50 (degradation of BRM, read-out: BRM DC50) lay in the range of 10 to 30 nM.
As for `Cc1ncsc1-c1ccc([C@H](C)NC(=O)[C@@H]2C[C@@H](O)CN2C(=O)[C@H](c2cc(N3CCC(CN4CCC(O[C@H]5C[C@H](Oc6cc(N7C8CCC7CN(c7cc(-c9ccccc9O)nnc7N)C8)ccn6)C5)CC4)CC3)no2)C(C)C)cc1O` [compound 700, (2S,4R)-1-((2S)-2-(3-(4-((4-((1r,3r)-3-((4-(3-(3-amino-6-(2-hydroxyphenyl)pyridazin-4-yl)-3,8-diazabicyclo[3.2.1]octan-8-yl)pyridin-2-yl)oxy)cyclobutoxy)piperidin-1-yl)methyl)piperidin-1-yl)isoxazol-5-yl)-3-methylbutanoyl)-4-hydroxy-N-((S)-1-(3-hydroxy-4-(4-methylthiazol-5-yl)phenyl)ethyl)pyrrolidine-2-carboxamide], the DC50 under setting [1] was greater than 30 nM.
Take `Cc1ncsc1-c1ccc([C@H](C)NC(=O)[C@@H]2C[C@@H](O)CN2C(=O)[C@@H](c2onc(OCCN3CCC(O[C@H]4C[C@H](Oc5cc(N6C7CCC6CN(c6cc(-c8ccccc8O)nnc6N)C7)ccn5)C4)CC3)c2Cl)C(C)C)cn1` [compound 223, (2S,4R)-1-((2R)-2-(3-(2-(4-((1r,3R)-3-((4-(3-(3-amino-6-(2-hydroxyphenyl)pyridazin-4-yl)-3,8-diazabicyclo[3.2.1]octan-8-yl)pyridin-2-yl)oxy)cyclobutoxy)piperidin-1-yl)ethoxy)-4-chloroisoxazol-5-yl)-3-methylbutanoyl)-4-hydroxy-N-((S)-1-(6-(4-methylthiazol-5-yl)pyridin-3-yl)ethyl)pyrrolidine-2-carboxamide]: under setting [1], the DC50 lay within 2.5 to 10 nM. The Dmax under setting [3] is greater than 75%.
For `Cc1ncsc1-c1ccc(CNC(=O)[C@@H]2C[C@@H](O)CN2C(=O)[C@H](C(C)C)N2Cc3ccccc3C2=O)c(OCCOCCOCCOCCOCCOCCn2cc(-c3cc(-c4ccccc4O)nnc3N)cn2)c1` [compound 20, (2S,4R)-N-(2-((17-(4-(3-amino-6-(2-hydroxyphenyl)pyridazin-4-yl)-1H-pyrazol-1-yl)-3,6,9,12,15-pentaoxaheptadecyl)oxy)-4-(4-methylthiazol-5-yl)benzyl)-4-hydroxy-1-((S)-3-methyl-2-(1-oxoisoindolin-2-yl)butanoyl)pyrrolidine-2-carboxamide], the DC50 under setting [1] is greater than 30 nM. For the same compound, under setting [2], the Dmax lay in the range of 50 to 75%.
Regarding `Cc1ncsc1-c1ccc([C@H](C)NC(=O)[C@@H]2C[C@@H](O)CN2C(=O)[C@H](c2cc(OCCC3CCN(C[C@H]4C[C@H](Oc5cc(N6C7CCC6CN(c6cc(-c8ccccc8O)nnc6N)C7)ccn5)C4)CC3)no2)C(C)C)c(F)c1F` [compound 587, (2S,4R)-1-((2S)-2-(3-(2-(1-(((1r,3S)-3-((4-(3-(3-amino-6-(2-hydroxyphenyl)pyridazin-4-yl)-3,8-diazabicyclo[3.2.1]octan-8-yl)pyridin-2-yl)oxy)cyclobutyl)methyl)piperidin-4-yl)ethoxy)isoxazol-5-yl)-3-methylbutanoyl)-N-((S)-1-(2,3-difluoro-4-(4-methylthiazol-5-yl)phenyl)ethyl)-4-hydroxypyrrolidine-2-carboxamide], the DC50 under setting [4] was greater than 30 nM.
On to `Cc1ncsc1-c1ccc([C@H](C)NC(=O)[C@@H]2C[C@@H](O)CN2C(=O)C(C(C)C)n2cc(OCCN3CCN(CCOc4cc(N5C6CCC5CN(c5cc(-c7ccccc7O)nnc5N)C6)ccn4)CC3)cn2)cc1` (stereo in doubt) [compound 38, (2S,4R)-1-[(2R)-2-[4-[2-(4-[2-[(4-[3-[3-amino-6-(2-hydroxyphenyl)pyridazin-4-yl]-3,8-diazabicyclo[3.2.1]octan-8-yl]pyridin-2-yl)oxy]ethyl]piperazin-1-yl)ethoxy]-1H-pyrazol-1-yl]-3-methylbutanoyl]-4-hydroxy-N-[(1S)-1-[4-(4-methyl-1,3-thiazol-5-yl)phenyl]ethyl]pyrrolidine-2-carboxamide], for which the 50% degradation concentration (DC50) under setting [1] is 10 to 30 nM. Moreover, under setting [2], the Dmax is greater than 75%.
On to `Cc1ncsc1-c1ccc([C@H](C)NC(=O)[C@@H]2C[C@@H](O)CN2C(=O)[C@@H](c2cc(N3CCN(C(C)(C)C4CCN(C[C@H]5C[C@H](Oc6cc(N7C8CCC7CN(c7cc(-c9ccccc9O)nnc7N)C8)ccn6)C5)CC4)CC3)no2)C(C)C)cc1` [compound 715, (2S,4R)-1-((2R)-2-(3-(4-(2-(1-(((1r,3r)-3-((4-(3-(3-amino-6-(2-hydroxyphenyl)pyridazin-4-yl)-3,8-diazabicyclo[3.2.1]octan-8-yl)pyridin-2-yl)oxy)cyclobutyl)methyl)piperidin-4-yl)propan-2-yl)piperazin-1-yl)isoxazol-5-yl)-3-methylbutanoyl)-4-hydroxy-N-((S)-1-(4-(4-methylthiazol-5-yl)phenyl)ethyl)pyrrolidine-2-carboxamide], for which, under setting [1], the DC50 was less than 2.5 nM. In addition, the greatest degradation seen (Dmax) (BRM degradation, SW1573 cells, read-out: Dmax (% degraded)) was greater than 75%.
As to `Cc1ncsc1-c1ccc([C@@H](NC(=O)[C@@H]2C[C@@H](O)CN2C(=O)[C@H](c2cc(N3CCC(CN4CCC(O[C@H]5C[C@H](Oc6cc(N7C8CCC7CN(c7cc(-c9ccccc9O)nnc7N)C8)ccn6)C5)CC4)CC3)no2)C(C)C)C(=O)N(C)C2CCC2)cc1` [compound 612, (2S,4R)-1-((2R)-2-(3-(4-((4-((1r,3r)-3-((4-(3-(3-amino-6-(2-hydroxyphenyl)pyridazin-4-yl)-3,8-diazabicyclo[3.2.1]octan-8-yl)pyridin-2-yl)oxy)cyclobutoxy)piperidin-1-yl)methyl)piperidin-1-yl)isoxazol-5-yl)-3-methylbutanoyl)-N-((R)-2-(cyclobutyl(methyl)amino)-1-(4-(4-methylthiazol-5-yl)phenyl)-2-oxoethyl)-4-hydroxypyrrolidine-2-carboxamide], the maximal degradation (Dmax) (BRM degradation, SW1573 cells, Table 2D, read-out: **Dmax (%) (% degraded)) is greater than 75%. Moreover, the DC50 under setting [4] is less than 2.5 nM.
